Earlier results as cited in PMC7941644, “Identification and Development of Therapeutics for COVID-19” (ArXiv, 2021).
Like-named read-outs stand apart in the source and are kept apart here.

Assays:
SARS-CoV-2 [1] = conditions: SARS-CoV-2 infection of Vero cells
SARS-CoV-1 = conditions: Vero E6 cells
Vero E6 cells = conditions: read-out: 90% effective concentration (EC90)
COVID-19 [2] = tested on: COVID-19; set-up: method as in PMID 33492523; conditions: mild to moderate symptoms, in addition to SOC; p = 0.06
COVID-19 [3] = conditions: days 3–6; study design severely limited
SARS-CoV-2 [4] = tested on: SARS-CoV-2
COVID-19 [5] = conditions: ivermectin preliminary; HCQ and lopinavir-ritonavir ref 144
COVID-19 [6] = tested on: COVID-19
COVID-19 [7] = conditions: vs SOC
COVID-19 [8] = tested on: COVID-19; remark: listed apart in the source
SARS-CoV-2 [9] = conditions: second interim analysis, 600 mg daily; control 3
SARS-CoV-2 [10] = conditions: control 16.8%, p < 0.001
COVID-19 [11] = conditions: HCQ arm vs control
COVID-19 [12] = conditions: treatment vs control groups
COVID-19 [13] = conditions: vs SOC alone
COVID-19 [14] = tested on: COVID-19; remark: listed apart in the source
COVID-19 [15] = tested on: COVID-19; remark: listed apart in the source
COVID-19 [16] = tested on: COVID-19; remark: listed apart in the source
COVID-19 [17] = conditions: compared to placebo

In the case of CCN(CC)CCCC(C)Nc1ccnc2cc(Cl)ccc12 (stereo not drawn) [CQ, chloroquine], the “inhibition of viral replication” value (SARS-CoV-2 [1]) is given as “effective in inhibiting viral replication”, the “inhibition of viral entry” value (SARS-CoV-1) is given as “inhibited viral entry of SARS-CoV-1” and the EC90 (Vero E6 cells) is given as 6.9 µM. The hospital stay (COVID-19 [2]) was 15.89 days.
In the case of CCN(CCO)CCCC(C)Nc1ccnc2cc(Cl)ccc12 (stereo not drawn) [HCQ, hydroxychloroquine], the “virological clearance by nasopharyngeal swab” value (COVID-19 [3]) is given as “higher rates of virological clearance”, the “median time to symptom alleviation” value (SARS-CoV-2 [4]; HCQ + SOC, SOC 21 days, p = 0.97) is given as 19 days and the “estimated difference in negative conversion rate of SARS-CoV-2 in 28 days” value (SARS-CoV-2 [4]; SOC plus HCQ vs SOC, 95% CI −10.3% to 18.5%) is given as 4.1%. The diarrhea (SARS-CoV-2 [4]; SOC+HCQ, 0% in SOC group, p = 0.004) was 10%, the “patients reporting adverse outcomes” value (SARS-CoV-2 [4]; SOC+HCQ, SOC only 8.8%) was 30% and the “effect on COVID-19 outcomes” value (COVID-19 [5]) was “no effect”. The “inhibition of viral replication” value (SARS-CoV-2 [1]) was “effective in inhibiting viral replication”, the “adjusted HR, risk of death” value (COVID-19 [6]; compared to no-HCQ group) was 2.61 and the rate of death (COVID-19 [6]; men, median age 65, no-HCQ group 14.1%) was 27.8%. For the same molecule, the “time to fever break and time to cough relief” value (COVID-19 [7]) was “decreased both average time to fever break and average time to cough relief”, the “difference in viral load between HCQ and control groups” value (COVID-19 [8]; day 3, 95% CI −0.28 to 0.29) was 0.01 and the “difference in viral load between HCQ and control groups” value (COVID-19 [8]; day 7, 95% CI −0.44 to 0.29) was −0.07. For the same molecule, the “difference in time to complete resolution of symptoms” value (COVID-19 [8]; p = 0.38) was -2 days, the “individuals who had contracted COVID-19” value (SARS-CoV-2 [9]) was 4 and the “patients reporting side effects” value (SARS-CoV-2 [10]) was 40.1%. The “increase in cardiac events” value (COVID-19 [11]) was 0.4 percentage points, the “virological clearance rate, time to virological clearance, time to body temperature normalization” value (COVID-19 [12]) was “comparable outcomes” and the “risk with short-term use” value was “not associated with additional risk”.
In the case of COC(=O)OCOc1c2n(ccc1=O)N([C@@H]1c3ccccc3SCc3c1ccc(F)c3F)[C@@H]1COCCN1C2=O [baloxavir marboxil], the “effect on viral clearance at day 14 and secondary outcomes” value (COVID-19 [13]) is given as “no significant effect”.
In the case of NC(=O)c1nc(F)cnc1O [favipiravir, 6-fluoro-3-hydroxy-2-pyrazinecarboxamide], the “time to viral clearance by RT-PCR” value (COVID-19 [14]; 35 favipiravir, 45 control patients) is given as “four”, the “patients with adverse side effects” value (COVID-19 [14]; control 56%) is given as 11% and the “improvement rate of lung CT scans” value (COVID-19 [14]; day 14, control 62%, p = 0.004) is given as 91%. For the same molecule, the hospital stay (COVID-19 [2]) was 13.29 days, the “effect on viral clearance at four days (secondary endpoint)” value (COVID-19 [15]) was “significant effect” and the tolerability (COVID-19 [15]) was “generally well-tolerated”. For the same molecule, the “effect on viral clearance at day 14 and secondary outcomes” value (COVID-19 [13]) was “no significant effect”.
For Cc1cccc(C)c1OCC(=O)N[C@@H](Cc1ccccc1)[C@@H](O)C[C@H](Cc1ccccc1)NC(=O)[C@H](C(C)C)N1CCCNC1=O [lopinavir], the “effect on COVID-19-related mortality” value (COVID-19 [16]) is given as “no effect”.
For sotrovimab, the “rates of adverse events” value (COVID-19 [17]) is given as “comparable, and in some cases lower” and the “more effective in reducing progression to the primary endpoint (hospitalized for more than 24 hours or died within 29 days)” value (COVID-19 [17]; 583 patients) is given as 85%.
